Test results as given in patent US9074300B2 (priority 2001, dated 2015).

Columns and labels:
GST [1] = target: T1, GST (Schistosoma japonicum, UniProt P08515); experiment: SPR immobilization of GST to self-assembled monolayer; assay type: binding; details: monolayer from 1:99 mixture of alkanethiol 13 and penta(ethylene glycol) alkanethiol; GST 100 μM, PBS pH 7.4
GST [2] = target: T2, GST (Rattus norvegicus, UniProt P08010); details: corresponds to affinity of 100 μM
Text: For example, glutathione-S-transferase (GST) is an enzyme which is commonly used as an affinity handle for the purification of recombinant proteins. The target protein is expressed and purified as a GST fusion and may then be treated with a protease to remove the GST domain (Smith and Johnson, 1988).

GST [3] = target: T2, GST; details: read-out: affinity of binding to GST; cited from earlier work
GST [4] = target: T1, GST; details: bound complex with GST
cutinase = cutinase (Fusarium vanettenii, UniProt P00590); assay type: biochemical, Fusarium solani pisi; details: read-out: Michaelis constant (KM)
Sequence of cutinase (P00590 17-230): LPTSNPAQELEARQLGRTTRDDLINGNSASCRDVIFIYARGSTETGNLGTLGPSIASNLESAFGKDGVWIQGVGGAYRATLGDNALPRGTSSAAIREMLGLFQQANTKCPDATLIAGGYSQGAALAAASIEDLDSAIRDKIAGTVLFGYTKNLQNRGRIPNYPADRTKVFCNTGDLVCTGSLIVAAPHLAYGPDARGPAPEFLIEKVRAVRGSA
Method: The release of PNP was followed using absorbance spectroscopy.
Spectrophotometric measurement was performed at room temperature using BECKMAN DU-640 spectrophotometer (BECKMAN COULTER, INC., Fullerton, Calif.).

T2 sequence (P08010 2-218 limits assumed): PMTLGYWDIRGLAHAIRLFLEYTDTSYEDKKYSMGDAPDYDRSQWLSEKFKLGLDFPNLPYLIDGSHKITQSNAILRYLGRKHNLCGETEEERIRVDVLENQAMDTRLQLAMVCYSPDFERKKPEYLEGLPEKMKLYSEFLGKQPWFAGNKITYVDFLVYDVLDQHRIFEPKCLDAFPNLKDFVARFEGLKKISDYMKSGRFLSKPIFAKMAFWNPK
T1 sequence (P08515 2-218 limits assumed): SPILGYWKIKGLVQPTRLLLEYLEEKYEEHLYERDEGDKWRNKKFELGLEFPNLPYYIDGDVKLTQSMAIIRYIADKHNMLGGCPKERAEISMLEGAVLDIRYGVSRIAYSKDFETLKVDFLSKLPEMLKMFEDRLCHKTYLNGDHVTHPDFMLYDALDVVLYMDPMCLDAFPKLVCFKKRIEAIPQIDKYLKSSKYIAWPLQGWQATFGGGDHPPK

Hydroquinone-glutathione-EG5-alkanethiol [compound 13]
binding of GST to monolayer (GST [1]): this binding was irreversible

N[C@@H](CCC(=O)N[C@@H](CS)C(=O)NCC(=O)O)C(=O)O [glutathione]
lifetime of the bound complex (GST [2]): about one
Kd (GST [3]): ~100 µM

Glutathione-dichtoroquinone conjugate [formula (6)]
first-order rate constant of irreversible cross-linking reaction (GST [4]): 0.11 ± 0.03 min⁻¹

CCCC(=O)Oc1ccc([N+](=O)[O-])cc1 [4-nitrophenyl butyrate]
Km (cutinase): 1000 µM
